Data reported in patent US12637410B2, “Vesicular monoamine transporter-2 ligands and their use in the treatment of psychostimulant abuse” (priority 2016, dated 2026).
Where two headings read alike, the source gives them in different places.

Columns and labels:
[1] = test system: METH-stimulated locomotor activity; experiment: METH-stimulated locomotor activity in rats; assay type: in vivo, rat; details: s.c.
Method: A series of VMAT2 inhibitors were synthesized and evaluated for their activity at VMAT2, dopamine transporters (DAT), and serotonin transporters (SERT) using rat striatum, hERG channels expressed by HEK-293 cells, and for their effect on METH-stimulated locomotor activity in rats.
The compounds of the invention were also evaluated for their effect on METH-stimulated locomotor activity in rats.

VMAT2 = molecular target: T1, VMAT2 (Rattus norvegicus, UniProt Q01827); experiment: [3H]Dopamine ([3H]DA) uptake assay, vesicular preparation; assay type: biochemical
T1 construct: from tissue; host or cells: rat striatum, isolated synaptic vesicles
T1 sequence (Q01827 whole entry): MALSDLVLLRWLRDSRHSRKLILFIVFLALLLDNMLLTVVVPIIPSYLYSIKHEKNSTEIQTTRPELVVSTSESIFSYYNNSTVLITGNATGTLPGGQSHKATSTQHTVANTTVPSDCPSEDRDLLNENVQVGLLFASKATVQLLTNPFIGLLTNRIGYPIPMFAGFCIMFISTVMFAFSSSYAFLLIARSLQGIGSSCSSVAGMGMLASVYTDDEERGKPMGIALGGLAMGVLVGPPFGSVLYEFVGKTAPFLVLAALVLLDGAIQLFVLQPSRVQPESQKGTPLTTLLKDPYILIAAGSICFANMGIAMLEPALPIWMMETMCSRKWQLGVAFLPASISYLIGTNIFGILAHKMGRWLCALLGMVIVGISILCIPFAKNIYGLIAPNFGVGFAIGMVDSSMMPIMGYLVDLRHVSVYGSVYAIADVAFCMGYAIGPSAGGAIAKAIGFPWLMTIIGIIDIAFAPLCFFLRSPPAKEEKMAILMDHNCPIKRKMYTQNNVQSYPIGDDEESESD

[2] = both, 0.08 µM, pH 7.4
Method: (§1) Each plate holds triplicate samples of two controls (0.4 mM) and up to 14 compounds (0.08 mM) in rat and human liver microsomes. Aliquots of each well of the plate (175 μl of each well) were transferred from the master plate into 5 assay plates. […] NADPH regenerating system solution A (6.05 ml, Fisher Scientific, #NC9255727) was combined with NADPH regenerating system solution B (1.21 ml, Fisher Scientific, #NC9016235) in potassium phosphate buffer (15.8 ml, 0.1 M, pH 7.4, 37° C.). The resulting NADPH solution (43.8 μl) was added to each well of all the 96-well assay plates and mixed with pipette briefly making the final protein and compound concentrations respectively: 0.5 mg/ml, 0.08 μM (0.4 μM for controls). Plates were sealed, and all plates except the 0-hr plate were incubated at 37° C., shaken at a speed of 60 rpm. A single assay plate was tested at each time point: 0.5 hr, 1 hr, 2 hr, and 4 hr. At each time point, 437.5 μL of pre-cooled internal standard was added each well of the plate to quench the reaction. […] 120 μl supernatant was transferred to a 96-well plate, centrifuged again and analyzed by UPLC-MS (Waters Inc., Milford, MA). The compounds and internal standard were detected by selected ion recording (SIR).
(§2) The amount of material was measured as a ratio of peak area to the internal standard and graphed. Using the slope from the initial linear portion of this curve, the degradation rate constant is calculated using equation [1]. The rate constant was then used to calculate the compounds half-life in plasma using equation [2].

[3] = Microsomal assays, rat liver microsomes; details: for Microsomal stability assays: Species/Half-life (hr) Rat: rat liver microsomes; for CLint scaled at 0.08 µM / half-life at 0.08 µM: female, Sprague-Dawley, rat, pH 7.4
Method: as §1, §2

[4] = Microsomal assays, human liver microsomes; details: for Microsomal stability assays: Species/Half-life (hr) Human: human liver microsomes; for half-life at 0.08 µM: both, human, pH 7.4
Method: as §1, §2

[5] = female, Sprague-Dawley, 0.08 µM, pH 7.4
Method: as §1, §2

hERG channel = molecular target: T2, hERG channel (Homo sapiens, UniProt Q12809); experiment: [3H]Dofetilide binding assay, HEK-293 cell membrane preparation; details: hERG Binding: Mean Ki (nM)
T2 construct: purchased; host or cells: HEK-293 cells stably expressing hERG (membranes)
T2 sequence (Q12809 whole entry): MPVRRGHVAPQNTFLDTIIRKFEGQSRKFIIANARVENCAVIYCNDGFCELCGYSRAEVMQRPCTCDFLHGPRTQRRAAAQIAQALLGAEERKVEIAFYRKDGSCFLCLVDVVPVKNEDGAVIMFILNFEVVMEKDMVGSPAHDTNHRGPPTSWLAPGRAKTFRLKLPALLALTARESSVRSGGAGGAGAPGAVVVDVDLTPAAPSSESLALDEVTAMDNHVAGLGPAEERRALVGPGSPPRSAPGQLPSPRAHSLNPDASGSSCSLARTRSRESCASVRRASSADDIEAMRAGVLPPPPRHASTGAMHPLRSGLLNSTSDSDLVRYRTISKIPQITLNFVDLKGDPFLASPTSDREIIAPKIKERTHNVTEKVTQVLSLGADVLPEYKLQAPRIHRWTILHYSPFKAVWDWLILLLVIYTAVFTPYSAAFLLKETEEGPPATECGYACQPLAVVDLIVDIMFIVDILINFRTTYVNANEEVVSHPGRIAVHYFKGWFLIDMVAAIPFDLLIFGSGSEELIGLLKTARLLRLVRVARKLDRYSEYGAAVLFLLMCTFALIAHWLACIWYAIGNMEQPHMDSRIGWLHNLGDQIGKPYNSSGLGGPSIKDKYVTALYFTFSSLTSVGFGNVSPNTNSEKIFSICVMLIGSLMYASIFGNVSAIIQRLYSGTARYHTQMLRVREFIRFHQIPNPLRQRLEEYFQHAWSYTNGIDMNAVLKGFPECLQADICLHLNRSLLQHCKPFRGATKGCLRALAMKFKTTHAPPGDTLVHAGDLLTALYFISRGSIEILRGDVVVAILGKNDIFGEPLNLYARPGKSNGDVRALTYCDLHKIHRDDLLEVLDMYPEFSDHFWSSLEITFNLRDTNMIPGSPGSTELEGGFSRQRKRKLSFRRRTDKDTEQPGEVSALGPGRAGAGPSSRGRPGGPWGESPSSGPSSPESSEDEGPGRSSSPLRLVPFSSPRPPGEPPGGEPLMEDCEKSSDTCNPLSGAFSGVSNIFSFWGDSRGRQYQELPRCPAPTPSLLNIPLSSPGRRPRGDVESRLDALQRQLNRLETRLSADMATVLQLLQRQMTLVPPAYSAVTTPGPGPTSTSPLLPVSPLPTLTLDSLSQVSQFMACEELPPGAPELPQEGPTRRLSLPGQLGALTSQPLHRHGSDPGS
Method: Membranes were suspended in assay buffer (50 mM Tris, 10 mM KCl, 1 mM MgCl2, pH 7.4) prior to the experiment. […] Nonspecific binding was determined in the presence of amitriptyline (1 mM). Samples were incubated for 1 hr. at 24° C., followed by rapid filtration.

[6] = Pharmacokinetic assays in mice (iv, po, sc); assay type: in vivo
[7] = Pharmacokinetic assays in rats (iv, po, sc); details: for Bioavail. (F %) Frat / bioavailability: rat; for bioavailability: male, Sprague-Dawley, in vivo
Method: (§3) Animals: Oral and intravenous dose pharmacokinetic studies were conducted in tandem in age matched female Swiss Webster mice and/or age matched male Sprague-Dawley rats purchased from Envigo-Harlan. Animals were housed in IVC cages with wood chip bedding and given food and water ad libitum.
(§4) Dose Formulation and Administration Volumes: Hydrochloric acid salts or free base forms were used for formulation.
(§5) Pharmacokinetic Studies: Groups of 6 animals were dosed with formulated test compound by bolus lateral tail vein injection (iv), by oral gavage (po), or by subcutaneous injection (sc) into left hind flank. […] Whole blood samples were collected into microtubes and centrifuged at 4000×g for 2 min. Plasma supernatants were collected and immediately frozen on dry ice, then transferred to a −80° C. freezer to await processing for LC-MS/MS analysis. Typical dose rates were 2 mg/kg iv, 10 mg/kg po, and <30 mg/kg sc.
(§6) Plasma calibrators (usually 0.25, 0.5, 1, 5, 15, 30, 100, 400, 700, and 1000 ng/mL) were generated by the addition of 5 μL of appropriate spiking solution into 100 μL blank plasma followed by vortex mixing. Plasma QC samples (usually 0.75, 25, 500, and 850 ng/mL) were prepared in a similar manner using an independent 2nd analyte stock solution. Calibrators and QCs were stored alongside experimental samples at −80° C. until analysis.
(§7) Analyte and internal standard contained in 5 μL sample injections (15° C. temp.; 1.5 mL 0.1% formic acid in MeOH or 1:1 MeOH: isopropanol injector rinse; 10 sec rinse dip time) were eluted from a guard-protected (2.7 μL, 3×5 mm) Agilent Poroshell 120 EC-C18 (2.7 μL, 3×50 mm; oven temp. 40° C.) analytical column with a 0.1% formic acid in water (mobile Phase-A): 0.1% formic acid in acetonitrile (mobile Phase-B) gradient. […] Positive-mode ESI Turbo V® source and MS gas, temperature, and probe settings were optimized for 0.4 mL flow rate at CUR=35/ISV=4500/TEM=550/GS1=65/GS2=65/CAD=10 with the probe position=7/0.5 horizontal/vertical. […] ISTD voltage potentials were set at DP=70, EP=10, CE=35 and CXP=6. Sample sequences consisted of single randomized experimental sample injections flanked by sets of blanks, calibrators and QCs with QCs interspersed, as needed, to maintain >5% total QC to experimental sample occurrence. High QCs (5,000 and 10,000 ng/mL) were inserted at end of sequence prior to second calibrator injections. Calibration curves were typically constructed by weighted (1/x^2) non-linear regression analysis of analyte/ISTD concentration ratios to analyte/ISTD peak area ratios using AB SciexMultiQuant software (Ver 3.0.31721.0).

[8] = molecular target: dopamine transporter (DAT) (Rattus norvegicus, UniProt P23977); experiment: [3H]DA uptake assay, synaptosomal preparation
Sequence of dopamine transporter (DAT) (P23977 whole entry): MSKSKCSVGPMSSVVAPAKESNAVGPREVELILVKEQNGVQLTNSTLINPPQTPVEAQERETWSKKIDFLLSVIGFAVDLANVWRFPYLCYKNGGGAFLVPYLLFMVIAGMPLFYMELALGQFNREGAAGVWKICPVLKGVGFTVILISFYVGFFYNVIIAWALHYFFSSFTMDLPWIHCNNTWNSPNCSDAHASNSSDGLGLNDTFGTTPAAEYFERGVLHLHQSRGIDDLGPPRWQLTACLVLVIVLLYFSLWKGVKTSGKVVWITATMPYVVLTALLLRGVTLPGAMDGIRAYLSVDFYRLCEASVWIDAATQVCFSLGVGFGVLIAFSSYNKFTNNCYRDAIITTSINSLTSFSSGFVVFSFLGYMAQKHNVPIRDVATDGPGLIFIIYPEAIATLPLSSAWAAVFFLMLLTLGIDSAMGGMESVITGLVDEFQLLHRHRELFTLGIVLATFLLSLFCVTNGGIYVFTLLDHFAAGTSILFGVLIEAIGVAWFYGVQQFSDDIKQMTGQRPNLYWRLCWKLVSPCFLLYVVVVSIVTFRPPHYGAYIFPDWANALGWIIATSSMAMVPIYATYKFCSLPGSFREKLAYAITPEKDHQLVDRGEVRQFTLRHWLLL
Method: [^3H]DA and [3H]5-HT uptake into striatal synaptosomes was determined to evaluate compound inhibition of the dopamine transporter (DAT) and the serotonin transporter (SERT), respectively. […] Assays were performed in duplicate in a total volume of 500 μL (for DAT assays) or 250 μL (for SERT assays). Aliquots of the synaptosomal suspension (25 μL for DAT, 50 μL for SERT) were added to tubes containing assay buffer and various concentrations of analog (1 nM-100 μM), and incubated at 34° C. for 5 min. Nonspecific uptake was determined in the presence of nomifensine (10 μM) for DAT assays or fluoxetine (10 μM) for SERT assays. […] Samples were placed on ice, and 50 μL of 0.1 μM [^3H]DA (for DAT assays) or 25 μL of 0.1 μM [^3H]5-HT (for SERT assays) was added to each tube, and incubated for 10 min at 34° C. Reactions were terminated by addition of 3 mL of ice-cold assay buffer and subsequent filtration and radioactivity retained by the filters was determined by liquid scintillation spectrometry (Tri-Carb 2100TR liquid scintillation analyzer; PerkinElmer Life and Analytical Sciences, Boston, MA).

in vivo = details: male, Sprague-Dawley, rat
Method: as §3, §4, §5, §6, §7

in vitro [9] = details: female, Sprague-Dawley, rat, pH 7.4
Method: as §1, §2

in vitro [10] = details: both, human, pH 7.4
Method: as §1, §2

rat striatal slices = details: cited from earlier work
METH self-administration = details: in vivo; cited from earlier work
[11] = [3H]DA uptake, rat vesicular preparation, mean of n>=3 unless N given, read-out: VMAT2 (rat) Inhibition: Mean Ki
[12] = [3H]dofetilide binding, HEK-293 membranes, mean of n>=3 unless N given

| Compound | Ki (VMAT2) [nM] | Bioavail. (F %) Fmice [6] | Ki (hERG channel; Table 4, mean, minimally n = 3) [nM] | CLint scaled at 0.08 µM [3] [mL/min/kg] | Ki [8] [nM] | also measured |
| --- | --- | --- | --- | --- | --- | --- |
| COc1ccc(CCCN[C@H](C)Cc2ccccc2)cc1.Cl [Compound 9] |  |  |  |  |  | METH-stimulated locomotor activity ([1]; 3 mg/kg): significant reduction |
| COc1ccc(CCCN[C@@H](C)Cc2ccccc2)cc1.Cl [Compound 10, (S)-3-(4-methoxyphenyl)-N-(1-phenylpropan-2-yl)propan-1-amine] |  |  |  |  |  | METH-stimulated locomotor activity ([1]; 17 mg/kg): significant reduction |
| FCC(Cc1ccc(-c2cncnc2)cc1)NCCCc1ccc(F)cc1 (stereo not drawn) [Compound 68] | 5 |  |  |  |  | Microsomal stability assays: Species/Half-life (hr) Human [2]: 0.1 h |
| O=[N+]([O-])c1ccc(CCCNC(CF)Cc2ccc(F)cc2)cc1 (stereo not drawn) [Compound 123] |  |  |  |  |  | Ki (VMAT2; [11]): 44 nM; Microsomal stability assays: Species/Half-life (hr) Rat [3]: 0.4 h; Microsomal stability assays: Species/Half-life (hr) Human [4]: 1.2 h |
| OCC(Cc1ccc(F)cc1)NCCCc1ccc(Br)cc1 (stereo not drawn) [Compound 154] |  |  |  |  |  | Microsomal stability assays: Species/Half-life (hr) Rat [5]: 0.1 h |
| CC(Cc1ccc(F)cc1)NCCCc1ccncc1 (stereo not drawn) [Compound 176] |  | Fmice: ~22% (prelim rat done) |  |  |  | Ki (hERG channel; [12]): 5100 nM |
| CC(Cc1ccncc1)NCCCc1ccc(F)cc1 (stereo not drawn) [Compound 187] |  | Fmice: 9.4% |  |  |  | half-life at 0.08 µM [4]: > 240 min |
| CC(Cc1ccc(F)cc1)NCCCc1ccc(F)cc1 (stereo not drawn) [Compound 190] | 9 | Fmice: 5% |  |  |  |  |
| CC(Cc1ccc(-c2cccnc2)cc1)NCCCc1ccc(F)cc1 (stereo not drawn) [Compound 192] |  | Fmice: 6.7% |  |  |  |  |
| CC(Cc1ccccc1)NCCCc1ccc(C(F)(F)F)cc1 (stereo not drawn) [Compound 194] |  | Fmice: 11.9% |  |  |  |  |
| CC(Cc1ccc(-c2cncnc2)cc1)NCCCc1ccc(F)cc1 (stereo not drawn) [Compound 196] | 8 | Fmice: 3.4% (prelim rat done) |  |  |  |  |
| CC(Cc1ccccc1)NCCCc1ccncc1 (stereo not drawn) [Compound 204] |  | Fmice: 10% (prelim rat done) |  |  |  |  |
| CCC(Cc1ccccc1)NCCCc1ccc(O)cc1 (stereo not drawn) [Compound 207] |  |  |  |  |  | Microsomal stability assays: Species/Half-life (hr) Rat [3]: Rat: 0.1 hr Human: 0.1 hr; Microsomal stability assays: Species/Half-life (hr) Human [4]: Rat: 0.1 hr Human: 0.1 hr |
| CC(Cc1ccc(C(F)(F)F)cc1)NCCCc1ccc(O)cc1 (stereo not drawn) [Compound 209] |  |  |  |  |  | Microsomal stability assays: Species/Half-life (hr) Rat [3]: 0.2 h; Microsomal stability assays: Species/Half-life (hr) Human [4]: 0.1 h |
| CC(Cc1ccccc1)NCCCc1ccc(S)cc1 (stereo not drawn) [Compound 216] |  | Fmice: 0.9% |  |  |  | Microsomal stability assays: Species/Half-life (hr) Rat ([3]; cell prints %): Rat: 0.3% |
| CC(Cc1ccccc1)NCCCc1ccc(N)cc1 (stereo not drawn) [Compound 220] |  | Fmice: quant; Frat: quant |  |  |  | Bioavail. (F %) Frat [7]: Fmice: quant; Frat: quant |
| CC(Cc1ccccc1)NCCCc1ccc(O)cc1 (stereo not drawn) [Compound 223] |  | Fmice: 8.9% |  |  |  |  |
| CC(Cc1ccc(F)c(F)c1)NCCCc1ccc2nonc2c1 (stereo not drawn) [Compound 227] | 49 |  |  |  |  | Ki (hERG channel; [12]): 650 nM; Bioavail. (F %) ([7]; species not given): No detection |
| CC(Cc1ccc(F)c(F)c1)NCCCc1ccc2nc[nH]c2c1 (stereo not drawn) [Compound 228] | 41 |  | 6770 | 48 | 3040 | Ki (hERG channel; [12]): 6770 nM; bioavailability ([7]; po, 10 mg/kg): 6%; Bioavail. (F %) Frat [7]: Frat: 5% |
| CC(Cc1ccc(F)c(F)c1)NCCCc1ccc(NC(N)=O)cc1 (stereo not drawn) [Compound 229] | 36 |  | 4290 | 41 | 1530 | Ki (hERG channel; [12]): 4290 nM; bioavailability (in vivo; po): 94%; Bioavail. (F %) Frat [7]: Frat: 22% |

| Compound | Ki (VMAT2) [nM] | Bioavail. (F %) Fmice [6] | Ki (hERG channel; Table 4, mean, minimally n = 3) [nM] | CLint scaled at 0.08 µM [3] [mL/min/kg] | Ki [8] [nM] | also measured |
| --- | --- | --- | --- | --- | --- | --- |
| CC(Cc1ccc(F)c(F)c1)NCCCc1ccc(S(N)(=O)=O)cc1 (stereo not drawn) [Compound 230] | 42 |  | 1030 | < 17 | 8240 | Ki (hERG channel; [12]): 1030 nM; bioavailability (in vivo; po): 94%; bioavailability (in vivo; sc): 44%; Bioavail. (F %) Frat [7]: Frat: >100% |
| CC(Cc1ccc(F)c(F)c1)NCCCc1ccc(C(N)=O)cc1 (stereo not drawn) [Compound 231] |  |  | 3500 | 23 | 2750 | Ki (VMAT2; [11]): 29 nM; Ki (hERG channel; [12]): 3500 nM; bioavailability ([7]; po, 10 mg/kg): 62%; bioavailability ([7]; sc): 84%; Bioavail. (F %) Frat [7]: Frat: 80% |
| CC(Cc1ccc(F)c(F)c1)NCCCc1cccc(NC(N)=O)c1 (stereo not drawn) [Compound 235] | 4 |  | 4380 | 71 | 1290 | Ki (hERG channel; [12]): 4380 nM; bioavailability (in vivo; po): 8% |
| CC(Cc1ccc(F)c(F)c1)NCCCc1cccc(C(N)=O)c1 (stereo not drawn) [Compound 237] |  |  | 4780 | 30 | 3120 | Ki (VMAT2; [11]): 32 nM; Ki (hERG channel; [12]): 4780 nM; bioavailability ([7]; po, 10 mg/kg): 2% |
| CC(Cc1ccccc1)NCCCc1ccc(F)cc1 (stereo not drawn) [Compound 249] | 6 | Fmice: 2.0% |  |  |  | Ki (hERG channel; [12]): 3000 nM; half-life at 0.08 µM [3]: 18 min; half-life at 0.08 µM [4]: 72 min |
| CC(Cc1ccccc1)NCCCc1ccc(OC(F)(F)F)cc1 (stereo not drawn) [Compound 258] | 16 |  |  |  |  | Ki (hERG channel; [12]): 90 nM; half-life at 0.08 µM [4]: > 240 min |
| CC(Cc1ccccc1)NCCCc1ccc(S)cc1 (stereo not drawn) [Compound 260] |  | Fmice: 0.9% |  |  |  |  |
| CC(Cc1ccc(F)cc1)NCCCc1ccc(CN)cc1 (stereo not drawn) [Compound 285] | 461 |  |  |  |  | half-life at 0.08 µM [3]: > 240 min; half-life at 0.08 µM [4]: > 240 min |
| Fc1ccc(CCCNC(Cc2ccccc2)Cc2ccccc2)cc1 [Compound 292] | 346 |  |  |  |  | half-life at 0.08 µM (in vitro [9]): < 6 min; half-life at 0.08 µM (in vitro [10]): 36 min |
| CC(Cc1ccc(F)cc1)NC(=O)CCc1ccc([N+](=O)[O-])cc1 (stereo not drawn) [Compound 293] | 10800 |  |  |  |  | half-life at 0.08 µM (in vitro [9]): 30 min; half-life at 0.08 µM (in vitro [10]): 24 min |
| CC(Cc1ccc(F)cc1)NC(=O)CCc1ccc(C#N)cc1 (stereo not drawn) [Compound 294] | 40600 |  |  |  |  | half-life at 0.08 µM [3]: 48 min; half-life at 0.08 µM [4]: 48 min |
| CC(Cc1cccc(NC(N)=O)c1)NCCCc1ccc(F)cc1 (stereo not drawn) [Compound 306] | 9 |  | 2750 | 47 | 2970 |  |
| CC(Cc1ccc2nccnc2c1)NCCCc1ccc(C(N)=O)cc1 (stereo not drawn) [Compound 307] | 17 |  | 21000 | 51 | 8890 | bioavailability (in vivo; po): 8%; bioavailability (in vivo; sc): > 100% |
| CC(Cc1ccc2nccnc2c1)NCCCc1ccc(F)cc1 (stereo not drawn) [Compound 308] | 13 |  | 1900 | 56 | 2930 |  |
| CC(Cc1cccc(F)c1)NCCCc1ccc(C(N)=O)cc1 (stereo not drawn) [Compound 309] |  |  | 12000 | 57 | 1630 | Ki (VMAT2; Table 4, mean, minimally n = 3, read-out: VMAT2 (rat) Inhibition: Mean Ki): 6 nM; bioavailability ([7]; po, 10 mg/kg): 5%; bioavailability ([7]; sc): 76% |
| CC(Cc1cccc(N)c1)NCCCc1ccc(F)cc1 (stereo not drawn) [Compound 310] | 5 |  | 2730 | 74 | 2230 |  |
| CC(Cc1ccc(F)c(F)c1)NCCCc1ccc2cnoc2c1 (stereo not drawn) [Compound 311] | 51 |  | 4200 | 117 | 2720 |  |
| CC(Cc1ccc(F)c(F)c1)NCCCc1ccc2nn[nH]c2c1 (stereo not drawn) [Compound 312] | 8 |  | 3000 | 115 | 1900 | bioavailability ([7]; po, 10 mg/kg): 7%; bioavailability ([7]; sc): 42% |
| COc1ccc(CCCN[C@@H](C)Cc2ccccc2)cc1 [Compound 313] | 72 |  | 4160 | 978 |  | half-life at 0.08 µM [3]: < 6 min; Bioavail. (F %) Frat ([7]; route not stated): Frat: 3.4% |
| CN1[C@@H](CCc2ccccc2)CCC[C@H]1CCc1ccccc1 [Lobelane] |  |  |  |  |  | METH-evoked DA overflow (rat striatal slices): decreases METH-evoked DA overflow; METH self-administration (METH self-administration): decreases METH self-administration |
